According to patent publication US5780221A, “Identification of enantiomeric ligands” (Whitehead Institute for Biomedical Research, priority 1996, dated 1998):
pKd: −log10 of the molar value. Ends that are not written are not given here.

Legend:
[1] = biological target: T1, L-SH3 domain (Gallus gallus, UniProt P00523); experiment: Competitive enzyme-linked immunosorbent assay (ELISA) for L-SH3 binding; design: species or system chicken; conditions: L- and D-amino acid ligands
T1 construct: Residues 81 to 140 of chicken c-SRC were cloned; modified TrpLE leader (Met to Leu, Cys to Ala) (N, cleaved yes); His9 within the C-terminal region of the TrpLE leader (N, cleaved yes); made in house; host or cells: Escherichia coli BL21(DE3) pLysS, plasmid pMMHb-SRC SH3
Method: (§1) The affinity of Pep-DI for the L-SH3 domain was determined by a competitive enzyme-linked immunosorbent assay (ELISA). Single wells of a 96-well plate were coated with 5 μg of the L-SH3 domain (Scott, J. K. and Smith, G. P., Science, 249:386 (1990); Smith, G. P. and Scott, J. K., Methods in Enzymol., 217:228 (1993)). Wells were blocked with BSA, and phages expressing the L-SH3-binding insert […] (SEQ ID NO: 10) were allowed to bind in 10 mM NaHPO4, pH 7.2, 15 mM NaCl, 1 mg/ml of BSA, 0.05% NaN3, and 0.1% Tween 20, in the presence of increasing amounts of competitor peptide. Phage binding was quantified with a rabbit M13 antibody (Stratagene) and alkaline phosphatase-labeled goat antibody to rabbit (Pierce), with a fresh solution of p-nitrophenol phosphate as substrate. Absorbance at 410 nm was determined with a Dynatech micotiter plate reader. […] Relative values for Kd were obtained as described (Minor, D. L., Jr. and Kim, P. S., Nature, 367:660 (1994)). […] A solution of the peptide was titrated into 1 μM SH3 solution in 15 mM NaCl and 10 mM NaHPO4, pH 7.2. Tryptophan fluorescence was induced by excitation at 295 nm (5 nm slit width), and emission was measured at 339 nm (10 nm slit width), with a Hitachi F-4500 fluorescence spectrometer. The dissociation constant was determined by Scatchard analysis.

[2] = biological target: T2, SH3 domain (Gallus gallus, UniProt P00523); experiment: Direct tryptophan fluorescence spectroscopy titration; type: binding, chicken; conditions: 1 μM SH3, 15 mM NaCl and 10 mM NaHPO4, pH 7.2; Scatchard analysis
T2 construct: Residues 81 to 140 of chicken c-SRC were cloned; modified TrpLE leader (Met to Leu, Cys to Ala) (N, cleaved yes); His9 within the C-terminal region of the TrpLE leader (N, cleaved yes); made in house; host or cells: E. coli in M9 medium with (15NH4)2SO4, plasmid pMMHb-SRC SH3
Method: as §1

[3] = biological target: T3, (L)-SH3 (Gallus gallus, UniProt P00523); experiment: Retention of bacterially expressed (L)-SH3 on peptide affinity column; type: binding; conditions: residues 81-140 of chicken c-Src
T3 construct: E. coli BL21(DE3) pLysS, pMMHb TrpLE-His9 fusion, cleaved with CNBr
Method: The L- and D-enantiomers of the chicken c-SRC domain were prepared by bacterial expression and chemical synthesis, respectively. The biotinylated, synthetic, 60-amino acid D-SH3 domain was refolded and purified by affinity chromatography, with a D-amino acid version of a known peptide ligand for the SH3 domain (Yu, H., et al., Cell, 76:933 (1994)).
The all D amino acid SH3 domain, sequence […] S-COOH-terminus (SEQ ID No: 1), residues 81-140 of chicken c-SRC, was synthesized on HMP resin (ABI/Perkin Elmer) with an ABI 431A peptide synthesizer and ABI fastmoc cycles (Fmoc chemistry with HBTU activation and capping with acetic anhydride). Protected D-amino acids were obtained from Bachem California., Bachem Bioscience, Advanced Chemtech, and Novabiochem. For D-Ile and D-Thr, the side chain enantiomers were used, in which the chirality of the side chain is also inverted relative to naturally occurring L-Thr and L-Ile. After completion of the synthesis, the NH2 -terminus of the peptide was modified with NHS-LC-biotin II (Pierce). After cleavage, the peptide was lyophilized, dissolved in 6 M guanidine HCl, pH 6.0, and dialyzed against 100 mM NaHPO4 and 100 mM NaCl, pH 6.0, with the use of dialysis tubing with a molecular cutoff of 3,500 daltons (D) (Spectra/Por). […]

With (D)-RCLSGLRLGLVPCA [Pep-D1] the “competition with the L-amino acid ligand” value [1] was “competition observed for the binding of these two ligands”.

In the case of YGGRELPPLPRF-NH2, the pKd [2] was 5.22 and the “retention of bacterially expressed (L)-SH3 on peptide column” value [3] was “can be retained on the (L)-enantiomer”.
